Kd and IC50 data for 18 molecules are collected here from US20240190849A1, “AMINOPYRIMIDINE COMPOUNDS AND METHODS OF THEIR USE” (TYRA BIOSCIENCES, INC., priority 2021, published 2024).

One assay addresses T1, FGFR3 (Homo sapiens, UniProt P22607).
T1 construct: made in house; host or cells: E. coli derived from BL21, infected with T7 phage
Kind of assay: Kinase binding assay (kinase-tagged T7 phage, affinity beads, qPCR readout), FGFR3. As to conditions: FGFR binding data. Summed up: (§1)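 Dissociation constants were measured by bead-capture competition at 0.9% DMSO, room temperature, 1 hour. qPCR of eluted kinase supplied the signal.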
For orientation: Quantitative PCR measures a nucleic acid by following its amplification.

Another assay deals with T2, FGFR2 (Homo sapiens, UniProt P21802).
T2 construct: made in house; host or cells: E. coli derived from BL21, infected with T7 phage
Kind of assay: Kinase binding assay (kinase-tagged T7 phage, affinity beads, qPCR readout), FGFR2. Conditions: FGFR binding data. Summed up: as §1

Another assay deals with T3, FGFR1 (Homo sapiens, UniProt P11362).
T3 construct: made in house; host or cells: E. coli derived from BL21, infected with T7 phage
The assay is described as follows: Kinase binding assay (kinase-tagged T7 phage, affinity beads, qPCR readout), FGFR1. As to conditions: FGFR binding data. In outline:
as §1

In a further assay the target is T4, FGFR3 (V555M) (Homo sapiens, UniProt P22607, V555M).
T4 construct: made in house; host or cells: E. coli derived from BL21, infected with T7 phage
The assay is described as follows: Kinase binding assay (kinase-tagged T7 phage, affinity beads, qPCR readout), FGFR3 (V555M). As to conditions: FGFR binding data. Summed up: as §1

Assay [1] relates to UM-UC-14 (Bladder Cancer), FGFR3(S249C). Kind of assay: Cancer cell viability assay (Cell Titer-Glo), UM-UC-14. As to conditions: UMUC14, UM-UC-14 cells, 72 hours. Type of assay: cell-based. The source says:
(§2) RT112/84, UM-UC-14, SNU-16 and KG-1 Cancer Cell Line Cell Viability Assays
(§3) To detect the change of intracellular ATP by Cell Titer-Glo@ and to evaluate the inhibitory effect of the compounds on cancer cell lines by determining the in vitro IC50 value of the compounds.
(§4) Cell Titer-Glo@ 2.0 Luminescent cell viability assay reagent was purchased from Promega (Madison, WI). RT112/84, SNU-16, and KG-1 cell lines were purchased from American Type Culture Collection (Manassas, VA). UM-UC-14 cell line was purchased from Sigma (St. Louis, MO). RT112/84, UM-UC-14, SNU-16, and KG-1 cells were cultured in RPMI1640 media supplemented with 10% fetal bovine serum. Cultures were maintained at 37° C. in a humidified atmosphere of 5% CO2 and 95% air.
(§5) Cell Viability Assay Procedure: Cells were plated in 96-well clear bottom/white plates (Corning #3903) at 10,000 cells/well in 100 μl of media, incubated overnight. The next day, test compound DMSO stock solutions were made at 10 mM and 2 μM final concentration. Compounds were then added to cells in a 9-dose, […] dilution series starting at 30 μM with an HP 300e Digital Dispenser (each dose was applied in triplicate). DMSO was backfilled to each well up to 301 nL total volume of test compound+DMSO, and a total of 301 nL DMSO was added to a control/no test compound well in triplicate. The cells in cell culture plates were incubated with the compounds at 37° C. and 5% CO2 for 72 hours. Then 50 μl of Cell Titer Glo 2.0 reagent was added to each well of the cell culture plates. The contents were covered from light and mixed on an orbital shaker at room temperature for 10 min. Luminescence was recorded by a Synergy H1 Microplate Reader (Biotek, Winooski, VT). Cells were assessed as a percentage of DMSO only treated control cells. Curves were plotted and IC50 values were calculated using the GraphPad Prism 8 program based on a sigmoidal dose-response equation (4 parameter).
(In general: Cellular ATP, detected with luciferase, serves as a proxy for viable cell number.)

Assay [2] relates to SNU-16 (Gastric Carcinoma), FGFR2 amplification. The assay is described as follows: Cancer cell viability assay (Cell Titer-Glo), SNU-16. Format: cell-based. As to conditions: Homo sapiens, SNU-16 cells, 72 hours, read-out: SNU16 FGFR2 (IC50 nM).
Description: as §2, §3, §4, §5

T1 sequence (P22607 23-806): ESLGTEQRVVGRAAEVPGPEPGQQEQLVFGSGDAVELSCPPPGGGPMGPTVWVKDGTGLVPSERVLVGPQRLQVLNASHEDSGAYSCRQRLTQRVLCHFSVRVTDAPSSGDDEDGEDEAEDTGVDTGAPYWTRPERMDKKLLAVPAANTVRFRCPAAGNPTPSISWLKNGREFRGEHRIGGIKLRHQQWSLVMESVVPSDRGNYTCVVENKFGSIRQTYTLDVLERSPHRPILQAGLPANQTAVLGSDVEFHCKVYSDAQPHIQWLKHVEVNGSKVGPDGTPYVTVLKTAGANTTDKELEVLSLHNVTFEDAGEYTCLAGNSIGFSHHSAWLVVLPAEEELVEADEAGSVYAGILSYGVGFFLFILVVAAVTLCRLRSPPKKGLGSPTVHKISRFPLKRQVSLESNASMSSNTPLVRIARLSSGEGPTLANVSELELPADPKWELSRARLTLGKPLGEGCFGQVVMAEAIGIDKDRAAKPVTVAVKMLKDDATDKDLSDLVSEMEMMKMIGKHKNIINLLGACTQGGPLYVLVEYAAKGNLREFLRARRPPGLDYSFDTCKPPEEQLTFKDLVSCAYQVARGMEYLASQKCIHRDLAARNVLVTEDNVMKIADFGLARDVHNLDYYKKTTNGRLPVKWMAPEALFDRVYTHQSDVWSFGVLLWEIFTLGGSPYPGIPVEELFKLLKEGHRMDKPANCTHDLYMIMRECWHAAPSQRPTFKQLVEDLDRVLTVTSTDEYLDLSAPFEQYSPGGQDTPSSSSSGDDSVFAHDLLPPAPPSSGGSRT
T4 sequence (P22607 23-806 V555M): as the sequence (P22607 23-806) above, with V533M counted along it
T2 sequence (P21802 22-821): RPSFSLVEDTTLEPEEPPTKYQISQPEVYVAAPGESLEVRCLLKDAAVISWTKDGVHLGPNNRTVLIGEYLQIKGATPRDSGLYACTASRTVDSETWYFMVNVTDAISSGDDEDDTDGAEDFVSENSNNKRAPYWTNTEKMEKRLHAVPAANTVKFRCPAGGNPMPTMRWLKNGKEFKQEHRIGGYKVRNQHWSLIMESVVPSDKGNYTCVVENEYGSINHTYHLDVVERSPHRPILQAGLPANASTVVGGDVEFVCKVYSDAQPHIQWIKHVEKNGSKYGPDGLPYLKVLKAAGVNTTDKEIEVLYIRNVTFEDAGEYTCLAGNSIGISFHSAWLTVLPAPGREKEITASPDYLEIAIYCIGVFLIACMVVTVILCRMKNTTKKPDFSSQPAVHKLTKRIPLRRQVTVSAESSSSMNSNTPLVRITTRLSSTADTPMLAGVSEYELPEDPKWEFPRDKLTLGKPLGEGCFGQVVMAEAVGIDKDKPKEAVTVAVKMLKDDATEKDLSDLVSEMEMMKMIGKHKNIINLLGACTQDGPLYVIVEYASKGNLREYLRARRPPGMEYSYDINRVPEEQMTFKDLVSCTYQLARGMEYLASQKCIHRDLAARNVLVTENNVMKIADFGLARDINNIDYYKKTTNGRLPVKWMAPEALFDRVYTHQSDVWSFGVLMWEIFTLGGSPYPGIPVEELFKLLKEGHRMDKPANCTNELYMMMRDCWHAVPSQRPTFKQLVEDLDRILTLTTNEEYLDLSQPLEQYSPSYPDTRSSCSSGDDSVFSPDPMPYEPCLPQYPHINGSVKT
T3 sequence (P11362 22-822): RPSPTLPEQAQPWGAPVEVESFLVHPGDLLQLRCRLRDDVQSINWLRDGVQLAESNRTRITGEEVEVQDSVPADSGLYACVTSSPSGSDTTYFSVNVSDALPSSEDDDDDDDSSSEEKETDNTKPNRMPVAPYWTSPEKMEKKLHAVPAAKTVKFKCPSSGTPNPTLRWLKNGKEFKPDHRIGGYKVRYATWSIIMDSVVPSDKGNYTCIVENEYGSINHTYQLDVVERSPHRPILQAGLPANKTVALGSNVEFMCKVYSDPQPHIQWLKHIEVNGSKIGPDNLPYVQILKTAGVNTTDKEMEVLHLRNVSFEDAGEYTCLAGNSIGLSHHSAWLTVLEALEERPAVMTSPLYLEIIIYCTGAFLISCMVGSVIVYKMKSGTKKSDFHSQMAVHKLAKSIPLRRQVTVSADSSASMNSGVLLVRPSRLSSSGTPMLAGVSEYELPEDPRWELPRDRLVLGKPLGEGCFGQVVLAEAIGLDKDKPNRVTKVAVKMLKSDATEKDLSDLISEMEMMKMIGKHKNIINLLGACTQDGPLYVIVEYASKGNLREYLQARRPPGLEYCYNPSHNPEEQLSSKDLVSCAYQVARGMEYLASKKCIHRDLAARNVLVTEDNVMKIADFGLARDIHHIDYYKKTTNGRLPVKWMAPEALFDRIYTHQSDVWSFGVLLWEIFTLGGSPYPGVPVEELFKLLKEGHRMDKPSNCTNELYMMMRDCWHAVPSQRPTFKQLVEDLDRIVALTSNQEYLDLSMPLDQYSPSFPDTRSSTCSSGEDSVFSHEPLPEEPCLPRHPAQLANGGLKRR

Consider `C=CC(=O)Nc1cnc2c(c1)c(C)cn2-c1nc(Nc2ccnn2C)ncc1F` [Example 80, N-[1-[5-fluoro-2-[(2-methylpyrazol-3-yl)amino]pyrimidin-4-yl]-3-methyl-pyrrolo[2,3-b]pyridin-5-yl]prop-2-enamide], for which the equilibrium dissociation constant (Kd) at FGFR3, on FGFR2, on FGFR1 and at FGFR3 (V555M) was 0.1 to 100 nM each time. For the same molecule, in assay [1], the IC50 (as a rule, the concentration that gives 50% inhibition) was 0.1 to 100 nM.
For the molecule `C=CC(=O)Nc1ccc2c(c1)c(C)cn2-c1nc(Nc2cnn3c2CCC3)ncc1F` [Example 207, N-[1-[2-(5,6-dihydro-4H-pyrrolo[1,2-b]pyrazol-3-ylamino)-5-fluoro-pyrimidin-4-yl]-3-methyl-indol-5-yl]prop-2-enamide], the Kd on FGFR3, at FGFR2, on FGFR1 and at FGFR3 (V555M) was 0.1 to 100 nM throughout. Besides, the IC50 in assay [1] was in the range of 0.1 to 100 nM.
As for `C=CC(=O)Nc1ccc2c(c1)c(C)nn2-c1nc(Nc2ccnn2C)ncc1C` [Example 77, N-[3-methyl-1-[5-methyl-2-[(2-methylpyrazol-3-yl)amino]pyrimidin-4-yl]indazol-5-yl]prop-2-enamide], the dissociation constant (Kd) (commonly a measure of binding affinity in units of concentration) was 250 to 1000 nM at FGFR3, over 1000 nM at FGFR2, over 1000 nM at FGFR1 and 250 to 1000 nM on FGFR3 (V555M). In assay [1], the IC50 was over 1000 nM.
Turning to `C=CC(=O)Nc1ccc2c(c1)c(C)cn2-c1nc(Nc2cn(C(F)F)nc2C)ncc1F` [Example 149, N-[1-[2-[[1-(difluoromethyl)-3-methyl-pyrazol-4-yl]amino]-5-fluoro-pyrimidin-4-yl]-3-methyl-indol-5-yl]prop-2-enamide], the Kd at FGFR3 was in the range of 0.1 to 100 nM; at FGFR2, 0.1 to 100 nM; at FGFR1, 100 to 250 nM; at FGFR3 (V555M) it was 0.1 to 100 nM. For the same molecule, in assay [2], the IC50 lay in the range of 0.1 to 100 nM.
Consider `C=CC(=O)Nc1ccc2c(c1)c(C)cn2-c1nc(Nc2cnn(C)c2C)ncc1C` [Example 147, N-[1-[2-[(1,5-dimethylpyrazol-4-yl)amino]-5-methyl-pyrimidin-4-yl]-3-methyl-indol-5-yl]prop-2-enamide], for which the Kd on FGFR3, at FGFR2, on FGFR1 and at FGFR3 (V555M) was 0.1 to 100 nM throughout. The IC50 in assay [2] lay within 0.1 to 100 nM.
With `C=CC(=O)Nc1ccc2c(c1)c(C)cn2-c1nc(Nc2cn(CC)nc2C)ncc1F` [Example 156, N-[1-[2-[(1-ethyl-3-methyl-pyrazol-4-yl)amino]-5-fluoro-pyrimidin-4-yl]-3-methyl-indol-5-yl]prop-2-enamide], the Kd on FGFR3, on FGFR2, on FGFR1 and on FGFR3 (V555M) was 0.1 to 100 nM each time. Moreover, the IC50 in assay [2] was in the range of 0.1 to 100 nM.
Regarding `C=CC(=O)Nc1ccc2c(c1)c(C)cn2-c1nc(Nc2cnn(CC(C)(C)O)c2C)ncc1F` [Example 183, N-[1-[5-fluoro-2-[[1-(2-hydroxy-2-methyl-propyl)-5-methyl-pyrazol-4-yl]amino]pyrimidin-4-yl]-3-methyl-indol-5-yl]prop-2-enamide], the Kd at FGFR3, at FGFR2, on FGFR1 and at FGFR3 (V555M) was 0.1 to 100 nM each time. Besides, the IC50 in assay [2] was in the range of 0.1 to 100 nM.
For `C=CC(=O)Nc1ccc2c(c1)c(C)cn2-c1nc(Nc2cn(CC(C)(C)O)nc2C)ncc1F` [Example 182, N-[1-[5-fluoro-2-[[1-(2-hydroxy-2-methyl-propyl)-3-methyl-pyrazol-4-yl]amino]pyrimidin-4-yl]-3-methyl-indol-5-yl]prop-2-enamide], the dissociation constant (Kd) at FGFR3, on FGFR2, on FGFR1 and on FGFR3 (V555M) was 0.1 to 100 nM each time. Moreover, in assay [2], the IC50 lay in the range of 0.1 to 100 nM.
`C=CC(=O)Nc1ccc2c(c1)c(C)cn2-c1nc(Nc2cn(C[C@@H](C)O)nc2C)ncc1F` [Example 214, N-[1-[5-fluoro-2-[[1-[(2R)-2-hydroxypropyl]-3-methyl-pyrazol-4-yl]amino]pyrimidin-4-yl]-3-methyl-indol-5-yl]prop-2-enamide]: the Kd at FGFR3, at FGFR2, on FGFR1 and at FGFR3 (V555M) was 0.1 to 100 nM throughout. Further, in assay [2], the IC50 was in the range of 0.1 to 100 nM.
As to `C=CC(=O)Nc1ccc2c(c1)c(C)cn2-c1nc(Nc2cnn(C3CCOC3)c2)ncc1F` (centres unmarked) [Example 215, N-[1-[5-fluoro-2-[(1-tetrahydrofuran-3-ylpyrazol-4-yl)amino]pyrimidin-4-yl]-3-methyl-indol-5-yl]prop-2-enamide], the Kd at FGFR3, at FGFR2, on FGFR1 and on FGFR3 (V555M) was 0.1 to 100 nM each time. The IC50 in assay [2] lay in the range of 0.1 to 100 nM.
`C=CC(=O)Nc1ccc2c(c1)c(C)cn2-c1nc(Nc2cccnc2C)ncc1F` [Example 153, N-[1-[5-fluoro-2-[(2-methyl-3-pyridyl)amino]pyrimidin-4-yl]-3-methyl-indol-5-yl]prop-2-enamide]: the Kd lay within 0.1 to 100 nM at FGFR3, 100 to 250 nM on FGFR2, 250 to 1000 nM on FGFR1 and 0.1 to 100 nM on FGFR3 (V555M). The IC50 in assay [2] was in the range of 0.1 to 100 nM.
As for `C=CC(=O)Nc1ccc2c(c1)c(C)nn2-c1nc(Nc2ccnn2C)ncc1F` [Example 76, N-[1-[5-fluoro-2-[(2-methylpyrazol-3-yl)amino]pyrimidin-4-yl]-3-methyl-indazol-5-yl]prop-2-enamide], the Kd on FGFR3 is 250 to 1000 nM; at FGFR2 it was 250 to 1000 nM; at FGFR1, over 1000 nM; at FGFR3 (V555M) it was over 1000 nM. The IC50 in assay [1] fell in the range of 250 to 1000 nM.
Consider `C=CC(=O)Nc1ccc2c(-c3nc(Nc4cnc5ccnn5c4)ncc3Cl)cn(C)c2c1` [Example 43, N-[3-[5-chloro-2-(pyrazolo[1,5-a]pyrimidin-6-ylamino)pyrimidin-4-yl]-1-methyl-indol-6-yl]prop-2-enamide], for which the IC50 in assay [1] lay in the range of 100 to 250 nM.
On to `C=CC(=O)Nc1cnc2c(c1)c(C)cn2-c1nc(Nc2ccn(C)n2)ncc1C` [Example 97, N-[3-methyl-1-[5-methyl-2-[(1-methylpyrazol-3-yl)amino]pyrimidin-4-yl]pyrrolo[2,3-b]pyridin-5-yl]prop-2-enamide], for which the Kd at FGFR3, on FGFR2, at FGFR1 and at FGFR3 (V555M) was 0.1 to 100 nM each time. In addition, the IC50 in assay [2] is 0.1 to 100 nM.
With `C=CC(=O)Nc1ccc2c(c1)c(C)cn2-c1nc(Nc2ccn(C3COC3)n2)ncc1C` [Example 120, N-[3-methyl-1-[5-methyl-2-[[1-(oxetan-3-yl)pyrazol-3-yl]amino]pyrimidin-4-yl]indol-5-yl]prop-2-enamide], the Kd on FGFR3, at FGFR2, at FGFR1 and at FGFR3 (V555M) was 0.1 to 100 nM each time. In assay [2], the IC50 lay in the range of 0.1 to 100 nM.
On to `C=CC(=O)Nc1cnc2c(c1)c(C)cn2-c1nc(Nc2cnn(CCO)c2)ncc1C` [Example 125, N-[1-[2-[[1-(2-hydroxyethyl)pyrazol-4-yl]amino]-5-methyl-pyrimidin-4-yl]-3-methyl-pyrrolo[2,3-b]pyridin-5-yl]prop-2-enamide], for which the Kd on FGFR3, at FGFR2, at FGFR1 and on FGFR3 (V555M) was 0.1 to 100 nM in each case. Besides, the IC50 in assay [2] lay within 0.1 to 100 nM.
As to `C=CC(=O)Nc1ccc2c(-c3nc(Nc4cnn(CCO)c4)ncc3C)cn(C)c2c1` [Example 126, N-[3-[2-[[1-(2-hydroxyethyl)pyrazol-4-yl]amino]-5-methyl-pyrimidin-4-yl]-1-methyl-indol-6-yl]prop-2-enamide], the Kd on FGFR3, on FGFR2, at FGFR1 and at FGFR3 (V555M) was 0.1 to 100 nM each time. Moreover, the IC50 in assay [2] lay within 0.1 to 100 nM.
Take `C=CC(=O)Nc1ccc2c(c1)c(C)cn2-c1nc(Nc2cnn(CC3(O)CC3)c2)ncc1F` [Example 175, N-[1-[5-fluoro-2-[[1-[(1-hydroxycyclopropyl)methyl]pyrazol-4-yl]amino]pyrimidin-4-yl]-3-methyl-indol-5-yl]prop-2-enamide]: the equilibrium dissociation constant (Kd) at FGFR3, on FGFR2, at FGFR1 and at FGFR3 (V555M) was 0.1 to 100 nM in each case. The IC50 in assay [2] fell in the range of 0.1 to 100 nM.
